Data reported in PubChem BioAssay (NCI).
Values joined by “and” are separate entries in the source; they are usually repeats but may differ in a detail not shown here. Equal entries are not always repeated.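 Each compound was tested at five concentrations against cells in 96-well plates for 48 hours. Here, GI50 denotes the concentration required for 50% inhibition of growth. At the TGI there is no net growth.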

Columns and labels:
Experiment in all cases: NCI anticancer screen, dose series, 48 h
RPMI-8226 leukemia = test system: RPMI-8226 leukemia
BT-549 breast = test system: BT-549 breast
SK-OV-3 ovarian = test system: SK-OV-3 ovarian
HOP-92 NSCLC = test system: HOP-92 NSCLC
DU-145 prostate = test system: DU-145 prostate
NCI-H522 lung = test system: NCI-H522 lung
HCT-15 colon = test system: HCT-15 colon
SK-MEL-2 melanoma = test system: SK-MEL-2 melanoma
A498 renal = test system: A498 renal
MDA-MB-231 breast = test system: MDA-MB-231 breast
SR leukemia = test system: SR leukemia
SF-539 CNS = test system: SF-539 CNS
M14 melanoma = test system: M14 melanoma
TK-10 renal = test system: TK-10 renal
IGROV1 ovarian = test system: IGROV1 ovarian
KM12 colon = test system: KM12 colon
NCI/ADR-RES ovarian = test system: NCI/ADR-RES ovarian
SW-620 colon = test system: SW-620 colon
SF-295 CNS = test system: SF-295 CNS
MALME-3M melanoma = test system: MALME-3M melanoma
NCI-H226 lung = test system: NCI-H226 lung
HL-60(TB) leukemia = test system: HL-60(TB) leukemia
UACC-62 melanoma = test system: UACC-62 melanoma
T-47D breast = test system: T-47D breast
RXF 393 renal = test system: RXF 393 renal
LOX IMVI melanoma = test system: LOX IMVI melanoma
K-562 leukemia = test system: K-562 leukemia
SK-MEL-28 melanoma = test system: SK-MEL-28 melanoma
UACC-257 melanoma = test system: UACC-257 melanoma
786-0 renal = test system: 786-0 renal
OVCAR-5 ovarian = test system: OVCAR-5 ovarian
COLO 205 colon = test system: COLO 205 colon
HCC-2998 colon = test system: HCC-2998 colon
NCI-H23 lung = test system: NCI-H23 lung
EKVX NSCLC = test system: EKVX NSCLC
HCT-116 colon = test system: HCT-116 colon
MOLT-4 leukemia = test system: MOLT-4 leukemia
SN12C renal = test system: SN12C renal
SK-MEL-5 melanoma = test system: SK-MEL-5 melanoma
A549 NSCLC = test system: A549 NSCLC
NCI-H460 lung = test system: NCI-H460 lung
OVCAR-8 ovarian = test system: OVCAR-8 ovarian
HOP-62 NSCLC = test system: HOP-62 NSCLC
U251 CNS = test system: U251 CNS
OVCAR-4 ovarian = test system: OVCAR-4 ovarian
SF-268 CNS = test system: SF-268 CNS
PC-3 prostate = test system: PC-3 prostate
CCRF-CEM leukemia = test system: CCRF-CEM leukemia
MDA-N = test system: MDA-N
UO-31 renal = test system: UO-31 renal
HT29 colon = test system: HT29 colon
CAKI-1 renal = test system: CAKI-1 renal
MDA-MB-435 = test system: MDA-MB-435
OVCAR-3 ovarian = test system: OVCAR-3 ovarian
ACHN renal = test system: ACHN renal
HS 578T breast = test system: HS 578T breast
SNB-19 CNS = test system: SNB-19 CNS
MCF7 breast = test system: MCF7 breast
SNB-75 CNS = test system: SNB-75 CNS

Compound: CC(=O)O[C@H]1C(=O)[C@@]2(C)[C@H]([C@H](OC(=O)c3ccccc3)[C@]3(O)C[C@H](OC(=O)[C@H](O)[C@@H](NC(=O)c4ccccc4)c4ccccc4C)C(C)=C1C3(C)C)[C@]1(OC(C)=O)CO[C@@H]1C[C@@H]2O
- TGI (RPMI-8226 leukemia): 1030 nM
- TGI (BT-549 breast): > 11800 nM
- TGI (SK-OV-3 ovarian): > 12700 nM
- TGI (HOP-92 NSCLC): 24200 nM
- TGI (DU-145 prostate): > 20600 nM
- TGI (NCI-H522 lung): 4290 nM
- TGI (HCT-15 colon): > 25000 nM
- TGI (SK-MEL-2 melanoma): 11500 nM
- TGI (A498 renal): 9400 nM
- TGI (MDA-MB-231 breast): > 16100 nM
- TGI (SR leukemia): 4060 nM
- TGI (SF-539 CNS): 1930 nM
- TGI (M14 melanoma): 3020 nM
- TGI (TK-10 renal): 18900 nM
- TGI (IGROV1 ovarian): > 25000 nM
- TGI (KM12 colon): 5750 nM
- TGI (NCI/ADR-RES ovarian): > 25000 nM
- TGI (SW-620 colon): > 25000 nM
- TGI (SF-295 CNS): > 9210 nM
- TGI (MALME-3M melanoma): > 24000 nM
- TGI (NCI-H226 lung): > 25000 nM
- TGI (HL-60(TB) leukemia): 228 nM
- TGI (UACC-62 melanoma): > 15800 nM
- TGI (T-47D breast): > 25000 nM
- TGI (RXF 393 renal): 3970 nM
- TGI (LOX IMVI melanoma): > 25000 nM
- TGI (K-562 leukemia): 5080 nM
- TGI (SK-MEL-28 melanoma): > 15200 nM
- TGI (UACC-257 melanoma): > 11700 nM
- TGI (786-0 renal): 12800 nM
- TGI (OVCAR-5 ovarian): 4740 nM
- TGI (COLO 205 colon): 1790 nM
- TGI (HCC-2998 colon): 7110 nM
- TGI (NCI-H23 lung): > 11600 nM
- TGI (EKVX NSCLC): > 25000 nM
- TGI (HCT-116 colon): 9150 nM
- TGI (MOLT-4 leukemia): 5350 nM
- TGI (SN12C renal): > 25000 nM
- TGI (SK-MEL-5 melanoma): 3050 nM
- TGI (A549 NSCLC): > 25000 nM
- TGI (NCI-H460 lung): > 11300 nM
- TGI (OVCAR-8 ovarian): 12700 nM
- TGI (HOP-62 NSCLC): > 25000 nM
- TGI (U251 CNS): 6000 nM
- TGI (OVCAR-4 ovarian): > 23300 nM
- TGI (SF-268 CNS): > 25000 nM
- TGI (PC-3 prostate): > 9400 nM
- TGI (CCRF-CEM leukemia): 2700 nM
- TGI (MDA-N): 392 nM
- TGI (UO-31 renal): > 24200 nM
- TGI (HT29 colon): 18400 nM
- TGI (CAKI-1 renal): > 25000 nM
- TGI (MDA-MB-435): 289 nM
- TGI (OVCAR-3 ovarian): 4870 nM
- TGI (ACHN renal): > 25000 nM
- TGI (HS 578T breast): 1730 nM
- TGI (SNB-19 CNS): > 25000 nM
- TGI (MCF7 breast): > 16100 nM
- TGI (SNB-75 CNS): 10100 nM

Compound: CC1=C2O[C@]3(O)C=C2C(=C(O)C1=O)[C@@H]1O[C@H](CC[C@H](C)/C=C(\C)C[C@@H](C)C[C@@H]3C)[C@H](C)[C@H](O)[C@H]1C
- TGI (RPMI-8226 leukemia): 378 nM and 582 nM
- GI50 (BT-549 breast): 878 nM
- TGI (BT-549 breast): 863 nM and 2150 nM
- GI50 (SK-OV-3 ovarian): 1720 nM
- TGI (SK-OV-3 ovarian): 2130 nM and 3110 nM
- GI50 (HOP-92 NSCLC): 177 nM
- TGI (HOP-92 NSCLC): 273 nM and 377 nM
- TGI (DU-145 prostate): 1030 nM and 659 nM
- TGI (NCI-H522 lung): 321 nM
- GI50 (HCT-15 colon): 180 nM
- TGI (HCT-15 colon): 289 nM and 406 nM
- GI50 (SK-MEL-2 melanoma): 282 nM
- TGI (SK-MEL-2 melanoma): 851 nM and 703 nM
- GI50 (A498 renal): 177 nM
- TGI (A498 renal): 694 nM and 2930 nM
- GI50 (MDA-MB-231 breast): 285 nM
- TGI (MDA-MB-231 breast): 352 nM and 830 nM
- TGI (SR leukemia): 4180 nM
- GI50 (SF-539 CNS): 240 nM
- TGI (SF-539 CNS): 384 nM and 580 nM
- GI50 (M14 melanoma): 220 nM
- TGI (M14 melanoma): 363 nM and 526 nM
- GI50 (TK-10 renal): 336 nM
- TGI (TK-10 renal): 372 nM and 1160 nM
- GI50 (IGROV1 ovarian): 272 nM
- TGI (IGROV1 ovarian): 324 nM and 664 nM
- GI50 (KM12 colon): 376 nM
- TGI (KM12 colon): 1750 nM and 1270 nM
- GI50 (NCI/ADR-RES ovarian): 559 nM
- TGI (NCI/ADR-RES ovarian): 1350 nM and 2680 nM
- TGI (SW-620 colon): 3470 nM
- GI50 (SF-295 CNS): 1640 nM
- TGI (SF-295 CNS): 2300 nM and 3110 nM
- TGI (MALME-3M melanoma): 480 nM and 334 nM
- GI50 (NCI-H226 lung): 935 nM
- TGI (NCI-H226 lung): 2120 nM and 2390 nM
- GI50 (HL-60(TB) leukemia): 203 nM
- TGI (HL-60(TB) leukemia): 617 nM
- GI50 (UACC-62 melanoma): 356 nM
- TGI (UACC-62 melanoma): 695 nM and 1160 nM
- GI50 (T-47D breast): 105 nM and 184 nM
- TGI (T-47D breast): 230 nM and 361 nM
- TGI (RXF 393 renal): 434 nM
- GI50 (LOX IMVI melanoma): 274 nM
- TGI (LOX IMVI melanoma): 793 nM and 739 nM
- TGI (K-562 leukemia): 4870 nM
- TGI (SK-MEL-28 melanoma): 662 nM and 588 nM
- GI50 (UACC-257 melanoma): 412 nM
- TGI (UACC-257 melanoma): 860 nM and 2340 nM
- GI50 (786-0 renal): 180 nM
- TGI (786-0 renal): 324 nM and 342 nM
- GI50 (OVCAR-5 ovarian): 767 nM
- TGI (OVCAR-5 ovarian): 3190 nM and 2080 nM
- GI50 (COLO 205 colon): 165 nM
- TGI (COLO 205 colon): 256 nM and 313 nM
- GI50 (HCC-2998 colon): 330 nM
- TGI (HCC-2998 colon): 384 nM and 1160 nM
- GI50 (NCI-H23 lung): 563 nM
- TGI (NCI-H23 lung): 1170 nM and 1880 nM
- TGI (EKVX NSCLC): 939 nM and 910 nM
- GI50 (HCT-116 colon): 201 nM
- TGI (HCT-116 colon): 486 nM and 436 nM
- GI50 (MOLT-4 leukemia): 174 nM
- TGI (MOLT-4 leukemia): 2340 nM and 688 nM
- GI50 (SN12C renal): 495 nM
- TGI (SN12C renal): 2150 nM and 1940 nM
- GI50 (SK-MEL-5 melanoma): 777 nM
- TGI (SK-MEL-5 melanoma): 1660 nM and 1710 nM
- GI50 (A549 NSCLC): 1610 nM
- TGI (A549 NSCLC): 2080 nM and 3390 nM
- GI50 (NCI-H460 lung): 1420 nM
- TGI (NCI-H460 lung): 1820 nM
- GI50 (OVCAR-8 ovarian): 169 nM and 234 nM
- TGI (OVCAR-8 ovarian): 472 nM and 597 nM
- GI50 (HOP-62 NSCLC): 1390 nM
- TGI (HOP-62 NSCLC): 709 nM and 3150 nM
- GI50 (U251 CNS): 288 nM
- TGI (U251 CNS): 1160 nM and 752 nM
- GI50 (OVCAR-4 ovarian): 229 nM
- TGI (OVCAR-4 ovarian): 560 nM and 637 nM
- GI50 (SF-268 CNS): 303 nM
- TGI (SF-268 CNS): 1140 nM and 892 nM
- TGI (PC-3 prostate): 1050 nM and 637 nM
- GI50 (CCRF-CEM leukemia): 33.9 nM
- TGI (CCRF-CEM leukemia): 296 nM
- GI50 (MDA-N): 204 nM
- TGI (MDA-N): 398 nM and 446 nM
- GI50 (UO-31 renal): 232 nM
- TGI (UO-31 renal): 548 nM and 654 nM
- GI50 (HT29 colon): 216 nM
- TGI (HT29 colon): 529 nM and 504 nM
- GI50 (CAKI-1 renal): 295 nM
- TGI (CAKI-1 renal): 1660 nM and 780 nM
- GI50 (MDA-MB-435): 199 nM
- TGI (MDA-MB-435): 325 nM and 429 nM
- GI50 (OVCAR-3 ovarian): 187 nM
- TGI (OVCAR-3 ovarian): 355 nM and 394 nM
- GI50 (ACHN renal): 182 nM
- TGI (ACHN renal): 239 nM and 323 nM
- TGI (HS 578T breast): 1490 nM
- GI50 (SNB-19 CNS): 1580 nM
- TGI (SNB-19 CNS): 1980 nM and 3110 nM
- TGI (MCF7 breast): 556 nM and 395 nM
- GI50 (SNB-75 CNS): 603 nM
- TGI (SNB-75 CNS): 897 nM and 1350 nM
